From patent publication US20120171123A1, “USES AND COMPOSITIONS FOR TREATMENT OF RHEUMATOID ARTHRITIS” (priority 2006, published 2012)
Marks after values point to notes of the source that are not given here.

Legend:
Assay type in all cases: in vivo, human
adult patients with RA = experiment: Study 1: DAS28 change by CRP category
Procedure: 407 patients with active RA enrolled in the 2 study arms. Of these patients, 299 (73.5%) patients completed the study until Week 52 and were evaluated.
Patients were grouped into three cohorts based on baseline CRP concentrations: low (<1 mg/dL); intermediate (1-4 mg/dL); and high (>4 mg/dL). Analyses were further conducted in two categories of patients according to their change in CRP concentrations at Week 12: those with a ≧20% decrease in CRP from baseline; or those with a <20% decrease in CRP from baseline. The following efficacy and radiographic measures were analyzed at Week 52 in the three baseline CRP categories and in the two Week 12 change in CRP categories: DAS28, ACR 20/50/70, Health assessment questionnaire (HAQ), and Total Sharp score (TSS).

patients with active RA = experiment: Study A in France: AIMS2-SF quality of life; conditions: for AIMS2-SF Work component score: working patients only
Text: Efficacy of a treatment for rheumatoid arthritis can be determined by comparing AIMS2-SF scores given by subjects having rheumatoid arthritis. The AIMS2-SF is a shorter version of the AIMS2 (i.e., available in 2-page format) and has psychometric properties similar to those of the AIMS2 (see Guillemin et al. (1997) Arthritis Rheum. 40(7):1267).
Unsatisfactory response or intolerance to at least one prior DMARD was required for enrollment in Study A. A 12-week study period was followed by an optional extension phase, with an efficacy assessment performed at Weeks 2, 6, 12, 20, and every eight weeks thereafter. Patients discontinued the study when they stopped receiving adalimumab or when […].
The HAQ and the Arthritis Impact Measurement Scale Short Form (AIMS2-SF) are both extensively validated health-related quality-of-life outcome measures in RA (Guillemin et al. Arth Rheum 1997; 40(7):1267-1274). Both measures have been proven useful in cohort studies and clinical trials (Guillemin et al). The HAQ and the AIMS2-SF are effective in detecting both long-term and short-term health status changes (Guillemin et al). In France, Study A patients completed the French AIMS2-SF, a tool that measures disease impact on physical function and overall quality-of-life in five components. Study A began in France began in December 2002. Completion of the AIMS2-SF at Study Entry Visit 1, Week 12, and Week 28 (if patient participated in the continuation period) was a component added in March 2003 as a France-specific amendment to the study protocol. Because AIMS2-SF was introduced later into the study, the number of French patients answering the AIMS2-SF is smaller than the overall French Study A population
A total of 266 patients out of 1,002 Study A patients in France completed the AIMS2-SF. AIMS2-SF responders recorded a significant improvement in quality-of-life.

[1] = test system: patients with severe RA who had failed MTX; experiment: Study 2 / Study 3 OLE (adalimumab monotherapy): SF-36; conditions: within 26 weeks
Procedure: In addition to the SF-36 instrument, the Health Utilities Index Mark 3 (HUI3) and the Functional Assessment of Chronic Illness Therapy-Fatigue (FACIT-F) questionnaires were administered at baseline, 12 weeks, and the end of the study.
The HUI3 scale is 0-1, with “1” denoting perfect health and “0” denoting death. FACIT-F scores range from 0-52, with higher scores representing less fatigue. The SF-36 includes one multi-item scale that assesses eight different dimensions of health, including physical and psychosocial components. For each dimension a value of 0-100 is given, with higher numbers representing less impairment. Changes in HUI3 of ≧0.03, in FACIT-F of ≧4 and in SF-36 of ≧4.4 (physical subscales) and ≧3.1 (mental subscales) are considered clinically meaningful.
In addition to clinical parameters, the SF-36 instrument, the Health Utilities Index Mark 3 (HUI3), and the Functional Assessment of Chronic Illness Therapy-Fatigue (FACIT-F) questionnaires were administered at baseline, and at weeks 12, 26, 50, 74, 98, 122, 146 and 170, respectively. The HUI3 scale ranges from 0-1, with “1” denoting perfect health and “0” denoting death. FACIT-F scores range from 0-52, with higher scores representing less fatigue. SF-36 scores range from 0-100 with higher scores indicating improvement in HRQoL. […]

[2] = test system: patients with long-standing RA; experiment: Study I open-label extension: HAQ; conditions: 5 years
Procedure: Demographic data, age, gender, disease duration, rheumatoid factor and changes in TJC, SJC, CRP, DAS28, HAQ and ACR responses were analysed. Baseline demographics and disease characteristics as well as efficacy measures at last visit (ACR 20/50/70, DAS28, HAQ) were compared between the groups. All patients, including those who discontinued from the trial, were evaluated
Patients were eligible to enroll in Study I if they met ACR criteria for diagnosis of RA. […] Efficacy outcomes were assessed at pre-specified intervals as observed data. Treatment time was calculated beginning with the first subcutaneous injection of adalimumab at any dose, excluding time on placebo. Improvements in signs and symptoms of RA were evaluated for ACR20, ACR50, and ACR70 criteria, 28-joint count Disease Activity Score (DAS28) using the CRP-based formula, and Health Assessment Questionnaire (HAQ). Patients with changes in dosage of MTX or corticosteroids were evaluated for at least 6 months; these patients were eligible for the extension study for at least 6 months and were eligible for discretionary dose tapering. Patients were monitored for adverse events (AEs) during the entire length of the study, from signed informed consent through last visit.

[3] = test system: patients with RA who had failed prior treatment with infliximab; experiment: Adalimumab after failed infliximab: HAQ
Text: Patients eligible to participate in the study included those with long-standing, moderate to severe RA who had terminated infliximab therapy because of lack or loss of efficacy and/or intolerance/side effects. […] Follow-up visits for safety and efficacy monitoring were scheduled at 2, 8, and 16 weeks. […] Efficacy parameters included TJC28 and SJC28; DAS28; ACR20, ACR50 Response; Moderate EULAR response; and HAQ. Subgroup analysis by reason for discontinuation included: • in case of discontinuation due to lack or loss of efficacy, patients were counted in the corresponding group regardless of additional cause of intolerance. • The subgroup “Discontinuation due to intolerance” was exclusive.

[4] = Baseline to Week 12, mean of individual patient differences

Molecule: CN(Cc1cnc2nc(N)nc(N)c2n1)c1ccc(C(=O)N[C@@H](CCC(=O)O)C(=O)O)cc1 [mtx alone, methotrexate]
- DAS28 mean change (adult patients with RA; week 52, baseline CRP 1-4 mg/dL): −1.2
- DAS28 mean change (adult patients with RA; week 52, baseline CRP <1 mg/dL): −1.3
- DAS28 mean change (adult patients with RA; week 52, baseline CRP >4 mg/dL): −1.7

Molecule: adalimumab: human anti-TNF mAb (HUMIRA, Abbott Laboratories), described in U.S. Pat. No. 6,090,382 as D2E7
- AIMS2-SF Afect component score (patients with active RA; Baseline): 4.7
- AIMS2-SF Physical component score (patients with active RA; Baseline): 3.9
- AIMS2-SF Social component score (patients with active RA; Baseline): 5.3
- AIMS2-SF Symptom component score (patients with active RA; Baseline): 6.7
- AIMS2-SF Physical component, % Change (patients with active RA; [4]): −25.0^§ %
- AIMS2-SF Social component, % Change (patients with active RA; [4]): 1.6%
- AIMS2-SF Social component, Mean Change (patients with active RA; [4]): −0.1
- AIMS2-SF Symptom component, % Change (patients with active RA; [4]): −43.4^§ %
- AIMS2-SF Symptom component, Mean Change (patients with active RA; [4]): −3.2^§
- AIMS2-SF Work component score (patients with active RA; Baseline): 4.2
- AIMS2-SF Work component score (patients with active RA; Week 12): 3.3
- AIMS2-SF Afect component score (patients with active RA; week 12): 3.6
- AIMS2-SF Physical component score (patients with active RA; week 12): 2.9
- AIMS2-SF Social component score (patients with active RA; week 12): 5.3
- AIMS2-SF Symptom component score (patients with active RA; week 12): 3.5
- SF-36 scores of all subscales/domains [1]: clinically meaningful improvements
- patients with no physical limitations (HAQ=0) [2]: 28%
- change in HAQ ([3]; week 16, all (n=37)): −0.25
- change in HAQ ([3]; week 16, infliximab stopped for intolerance (n=5)): −0.15
- change in HAQ ([3]; week 16, infliximab stopped for loss of response (n=19)): −0.36
- change in HAQ ([3]; week 16, infliximab stopped for no response (n=13)): −0.23
